What was measured:
Bcl-2 protein = Bcl-2 protein (histag-Bcl-2, UniProtKB P10415) (Homo sapiens (Human), UniProt P10415); experiment: Inhibition of Bcl-2 by the fluorescence polarisation technique; type: binding; conditions: fluorescence polarisation test; incubation for 2 hours; read-out: IC50 (nM) Bcl-2 FP
Description: For partial inhibitors, the percentage fluorescence polarisation inhibition for a given concentration of the test compound is indicated.

[1] = tested on: RS4; 11 leukaemia cell line; experiment: In vitro cytotoxicity, Microculture Tetrazolium Assay (MTT); type: cell-based; conditions: Homo sapiens, 11 cells exposed for 48 hours
Description: The cytotoxicity studies were carried out on the RS4; 11 leukaemia cell line and on H146 small Cell Lung Carcinoma cell line. The cells are distributed onto microplates and exposed to the test compounds for 48 hours. The cell viability is then quantified by a colorimetric assay, the Microculture Tetrazolium Assay (Cancer Res., 1987, 47, 939-942).

Sequence of Bcl-2 protein (P10415 whole entry): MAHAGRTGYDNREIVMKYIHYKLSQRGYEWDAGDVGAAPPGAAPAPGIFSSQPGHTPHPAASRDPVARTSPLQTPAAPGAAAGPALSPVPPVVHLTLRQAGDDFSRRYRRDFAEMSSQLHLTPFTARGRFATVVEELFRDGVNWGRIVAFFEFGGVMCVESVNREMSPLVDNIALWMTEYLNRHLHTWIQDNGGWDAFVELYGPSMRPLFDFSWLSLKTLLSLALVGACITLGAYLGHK

SMILES | IC50 (Bcl-2 protein) [nM] | IC50 [1] [nM]
C[C@@H]1Cc2ccccc2CN1C(=O)c1cc2c(cc1-c1cc(C(=O)N(C)c3ccc(O)cc3)c3n1CCCC3)CCN(C(=O)OC(C)(C)C)C2 [Example 47, tert-Butyl 6-{1-[(4-hydroxyphenyl)(methyl)carbamoyl]-5,6,7,8-tetrahydroindolizin-3-yl}-7-[(3R)-3-methyl-1,2,3,4-tetrahydroisoquinoline-2-carbonyl]-1,2,3,4-tetrahydroisoquinoline-2-carboxylate] | 12 | 45
Cc1c(C(=O)N(C)c2ccc(O)cc2)cc(-c2cc3c(cc2C(=O)N2Cc4ccccc4C[C@H]2CCN2CCOCC2)CN(C(=O)Cc2ccccc2)CC3)n1C [Example 779, N-(4-Hydroxyphenyl)-N,1,2-trimethyl-5-{7-[(3S)-3-[2-(morpholin-4-yl)ethyl]-1,2,3,4-tetrahydroisoquinoline-2-carbonyl]-2-(2-phenylacetyl)-1,2,3,4-tetrahydroisoquinolin-6-yl}-1H-pyrrole-3-carboxamide] | 2.9 | 24
C[C@@H]1Cc2ccccc2CN1C(=O)c1cc2c(cc1-c1cc(C(=O)N(C)c3ccc(O)cc3)c3n1CCCC3)CN(C(=O)N1CC(c3ccccc3)C1)C2 [Example 83, N-(4-Hydroxyphenyl)-N-methyl-3-{6-[(3R)-3-methyl-1,2,3,4-tetrahydroisoquinoline-2-carbonyl]-2-(3-phenylazetidine-1-carbonyl)-2,3-dihydro-1H-isoindol-5-yl}-5,6,7,8-tetrahydroindolizine-1-carboxamide] | 15 | 122
C[C@@H]1Cc2ccccc2CN1C(=O)c1cc2c(cc1-c1cc(C(=O)N(C)c3ccc(O)cc3)c3n1CCCC3)CN(Cc1ccccc1)C2 [Example 33, 3-{2-Benzyl-6-[(3R)-3-methyl-1,2,3,4-tetrahydroisoquinoline-2-carbonyl]-2,3-dihydro-1H-isoindol-5-yl}-N-(4-hydroxyphenyl)-N-methyl-5,6,7,8-tetrahydroindolizine-1-carboxamide] | 33 | 460
Cc1c(C(=O)N(C)c2ccc(O)cc2)cc(-c2cc3c(cc2C(=O)N2Cc4ccccc4C[C@H]2C)CN(C(=O)Cc2ccccc2)C3)n1C [Example 80, N-(4-Hydroxyphenyl)-N,1,2-trimethyl-5-{6-[(3R)-3-methyl-1,2,3,4-tetrahydroisoquinoline-2-carbonyl]-2-(2-phenylacetyl)-2,3-dihydro-1H-isoindol-5-yl}-1H-pyrrole-3-carboxamide] | 5.5 | 71
Cc1c(C(=O)N(C)c2ccc(O)cc2)cc(-c2cc3c(cc2C(=O)N2Cc4ccccc4C[C@H]2CN2CCOCC2)CN(C(=O)Oc2cccc(C#N)c2)CC3)n1C [Example 560, 3-Cyanophenyl 6-{4-[(4-hydroxyphenyl)(methyl)carbamoyl]-1,5-dimethyl-1H-pyrrol-2-yl}-7-[(3S)-3-(morpholin-4-ylmethyl)-1,2,3,4-tetrahydroisoquinoline-2-carbonyl]-1,2,3,4-tetrahydroisoquinoline-2-carboxylate] | 8.8 | 70
C[C@@H]1Cc2ccccc2CN1C(=O)c1cc2c(cc1-c1cc(C(=O)N(C)c3ccc(O)cc3)c3n1CCCC3)CN(Cc1ccccn1)C2 [Example 28, N-(4-Hydroxyphenyl)-N-methyl-3-{6-[(3R)-3-methyl-1,2,3,4-tetrahydroisoquinoline-2-carbonyl]-2-(pyridin-2-ylmethyl)-2,3-dihydro-1H-isoindol-5-yl}-5,6,7,8-tetrahydroindolizine-1-carboxamide] | 23 | > 150
C[C@@H]1Cc2ccccc2CN1C(=O)c1cc2c(cc1-c1cc(C(=O)N(c3ccccc3)c3ccc(O)cc3)c3n1CCCC3)CCN(C(=O)Cc1ccccc1)C2 [Example 134, N-(4-hydroxyphenyl)-3-{7-[(3R)-3-methyl-1,2,3,4-tetrahydroisoquinoline-2-carbonyl]-2-(2-phenylacetyl)-1,2,3,4-tetrahydroisoquinolin-6-yl}-N-phenyl-5,6,7,8-tetrahydroindolizine-1-carboxamide] | 4.3 | 2
C[C@@H]1Cc2ccccc2CN1C(=O)c1cc2c(cc1-c1cc(C(=O)N(C)c3ccc(O)cc3)c3n1CCCC3)CN(C(=O)N(C)c1ccccc1)C2 [Example 82, 5-{1-[(4-Hydroxyphenyl)(methyl)carbamoyl]-5,6,7,8-tetrahydroindolizin-3-yl}-N-methyl-6-[(3R)-3-methyl-1,2,3,4-tetrahydroisoquinoline-2-carbonyl]-N-phenyl-2,3-dihydro-1H-isoindole-2-carboxamide] | 17 | > 150
C[C@@H]1Cc2ccccc2CN1C(=O)c1cc2c(cc1-c1cc(C(=O)N(C)c3ccc(O)cc3)c3n1CCCC3)CN(C(=O)Cc1ccccc1)C2 [Example 14, N-(4-Hydroxyphenyl)-N-methyl-3-{6-[(3R)-3-methyl-1,2,3,4-tetrahydroisoquinoline-2-carbonyl]-2-(2-phenylacetyl)-2,3-dihydro-1H-isoindol-5-yl}-5,6,7,8-tetrahydroindolizine-1-carboxamide] | 7.9 | 27
C[C@@H]1Cc2ccccc2CN1C(=O)c1cc2c(cc1-c1cc(C(=O)N(C)c3ccc(O)cc3)c3n1CCCC3)CCN(C(=O)Oc1ccc(CCC(=O)N(C)C)cc1)C2 [Example 155, 4-[2-(Dimethylcarbamoyl)ethyl]phenyl 6-{1-[(4-hydroxyphenyl)(methyl)carbamoyl]-5,6,7,8-tetrahydroindolizin-3-yl}-7-[(3R)-3-methyl-1,2,3,4-tetrahydroisoquinoline-2-carbonyl]-1,2,3,4-tetrahydroisoquinoline-2-carboxylate] | 3.2 | 2.9
Cc1c(C(=O)N(C)c2ccc(O)cc2)cc(-c2cc3c(cc2C(=O)N2Cc4ccccc4C[C@H]2C)CN(C(=O)Cc2ccccc2)CC3)n1C [Example 75, N-(4-Hydroxyphenyl)-N,1,2-trimethyl-5-{7-[(3R)-3-methyl-1,2,3,4-tetrahydroisoquinoline-2-carbonyl]-2-(2-phenylacetyl)-1,2,3,4-tetrahydroisoquinolin-6-yl}-1H-pyrrole-3-carboxamide] | 4 | 6.2
C[C@@H]1Cc2ccccc2CN1C(=O)c1cc2c(cc1-c1cc(C(=O)N(C)c3ccc(O)cc3)c3n1CCCC3)CCN(C(=O)CCc1ccccc1)C2 [Example 37, N-(4-Hydroxyphenyl)-N-methyl-3-{7-[(3R)-3-methyl-1,2,3,4-tetrahydroisoquinoline-2-carbonyl]-2-(3-phenylpropanoyl)-1,2,3,4-tetrahydroisoquinolin-6-yl}-5,6,7,8-tetrahydroindolizine-1-carboxamide] | 4.9 | 18
C[C@@H]1Cc2ccccc2CN1C(=O)c1cc2c(cc1-c1cc(C(=O)N(C)c3ccc(O)cc3)c3n1CCCC3)CN(CC(=O)Nc1ccccc1)C2 [Example 92, N-(4-Hydroxyphenyl)-N-methyl-3-{6-[(3R)-3-methyl-1,2,3,4-tetrahydroisoquinoline-2-carbonyl]-2-[(phenylcarbamoyl)methyl]-2,3-dihydro-1H-isoindol-5-yl}-5,6,7,8-tetrahydroindolizine-1-carboxamide] | 20 | 105
Cc1c(C(=O)N(C)c2ccc(O)cc2)cc(-c2cc3c(cc2C(=O)N2Cc4ccccc4C[C@H]2C)CN(C(=O)[C@H](N)c2ccccc2)C3)n1C [Example 174, 5-(2-[(2R)-2-Amino-2-phenylacetyl]-6-{[(3R)-3-methyl-3,4-dihydroisoquinolin-2(1H)-yl]carbonyl}-2,3-dihydro-1H-isoindol-5-yl)-N-(4-hydroxyphenyl)-N,1,2-trimethyl-1H-pyrrole-3-carboxamide] | 5.9 | 407
Cc1c(C(=O)N(C)c2ccc(O)cc2)cc(-c2cc3c(cc2C(=O)N2Cc4ccccc4C[C@H]2CN2CCOCC2)CN(C(=O)O[C@@H]2C[C@H](C)CC[C@H]2C(C)C)CC3)n1C [Example 797, (1R,2S,5R)-5-Methyl-2-(propan-2-yl)cyclohexyl 6-{4-[(4-hydroxyphenyl)(methyl)carbamoyl]-1,5-dimethyl-1H-pyrrol-2-yl}-7-[(3S)-3-(morpholin-4-ylmethyl)-1,2,3,4-tetrahydroisoquinoline-2-carbonyl]-1,2,3,4-tetrahydroisoquinoline-2-carboxylate] | 21 | 125
Cc1c(C(=O)N(C)c2ccc(O)cc2)cc(-c2cc3c(cc2C(=O)N2Cc4ccccc4C[C@H]2CN2CCOCC2)CN(C(=O)Oc2ccc(Br)cc2)CC3)n1C [Example 784, 4-Bromophenyl 6-{4-[(4-hydroxyphenyl)(methyl)carbamoyl]-1,5-dimethyl-1H-pyrrol-2-yl}-7-[(3S)-3-(morpholin-4-ylmethyl)-1,2,3,4-tetrahydroisoquinoline-2-carbonyl]-1,2,3,4-tetrahydroisoquinoline-2-carboxylate] | 5.1 | 2.9
C[C@@H]1Cc2ccccc2CN1C(=O)c1cc2c(cc1-c1cc(C(=O)N(C)c3ccc(O)cc3)c3n1CCCC3)CN(C(=O)CCc1ccccc1)C2 [Example 15, N-(4-Hydroxyphenyl)-N-methyl-3-{6-[(3R)-3-methyl-1,2,3,4-tetrahydroisoquinoline-2-carbonyl]-2-(3-phenylpropanoyl)-2,3-dihydro-1H-isoindol-5-yl}-5,6,7,8-tetrahydroindolizine-1-carboxamide] | 19 | 93
C[C@@H]1Cc2ccccc2CN1C(=O)c1cc2c(cc1-c1cc(C(=O)N(C)c3ccc(O)cc3)c3n1CCCC3)CCN(S(=O)(=O)Cc1ccccc1)C2 [Example 40, N-(4-Hydroxyphenyl)-N-methyl-3-{7-[(3R)-3-methyl-1,2,3,4-tetrahydroisoquinoline-2-carbonyl]-2-phenylmethanesulfonyl-1,2,3,4-tetrahydroisoquinolin-6-yl}-5,6,7,8-tetrahydroindolizine-1-carboxamide] | 3.6 | 34

Reference: US9809574B2, “Isoindoline or isoquinoline compounds, a process for their preparation and pharmaceutical compositions containing them” (LES LABORATOIRES SERVIER, priority 2013, dated 2017)
